Laboratory results as given in PubChem BioAssay (NCI).
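Where inhibition never reached the appropriate level, the endpoint shown equals the highest concentration tested. Otherwise, values were interpolated linearly from a five-concentration, 48-hour dose response in 96-well plates. TGI is the concentration that stops growth completely.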

How the values were obtained:
Experiment in all cases: NCI-60 cell line screen, 48 h
HCC-2998 colon = tested on: HCC-2998 colon
SK-OV-3 ovarian = tested on: SK-OV-3 ovarian
M14 melanoma = tested on: M14 melanoma
OVCAR-4 ovarian = tested on: OVCAR-4 ovarian
A498 renal = tested on: A498 renal
HT29 colon = tested on: HT29 colon
K-562 leukemia = tested on: K-562 leukemia
MALME-3M melanoma = tested on: MALME-3M melanoma
UO-31 renal = tested on: UO-31 renal
SN12C renal = tested on: SN12C renal
MOLT-4 leukemia = tested on: MOLT-4 leukemia
M19-MEL melanoma = tested on: M19-MEL melanoma
SNB-75 CNS = tested on: SNB-75 CNS
NCI-H23 lung = tested on: NCI-H23 lung
DLD-1 colon = tested on: DLD-1 colon
HCT-116 colon = tested on: HCT-116 colon
SF-268 CNS = tested on: SF-268 CNS
LXFL 529 NSCLC = tested on: LXFL 529 NSCLC
IGROV1 ovarian = tested on: IGROV1 ovarian
OVCAR-8 ovarian = tested on: OVCAR-8 ovarian

Row | Structure (SMILES) | TGI (HCC-2998 colon) [µM] | TGI (SK-OV-3 ovarian) [µM] | TGI (M14 melanoma) [µM] | TGI (OVCAR-4 ovarian) [µM] | TGI (A498 renal) [µM] | TGI (HT29 colon) [µM] | TGI (K-562 leukemia) [µM] | TGI (MALME-3M melanoma) [µM] | TGI (UO-31 renal) [µM] | TGI (SN12C renal) [µM] | TGI (MOLT-4 leukemia) [µM] | TGI (M19-MEL melanoma) [µM] | TGI (SNB-75 CNS) [µM] | TGI (NCI-H23 lung) [µM] | TGI (DLD-1 colon) [µM] | TGI (HCT-116 colon) [µM] | TGI (SF-268 CNS) [µM] | TGI (LXFL 529 NSCLC) [µM] | TGI (IGROV1 ovarian) [µM] | TGI (OVCAR-8 ovarian) [µM]
1 | Nc1ccc(Oc2ccc(C3(c4ccc(Oc5ccc(N)c(O)c5)cc4)C4CC5CC(C4)CC3C5)cc2)cc1O | 3.01 | 7.1 | 3.18 | 24.9 | 31 | 4.4 | 5.56 | 3.92 | 3.82 | 3.62 | 4.08 |  |  |  |  |  |  |  |  | 
2 | CCOC(=O)/C(C#N)=c1/s/c(=C(\O)N/N=C/c2ccc(OC)cc2)c(=N)n1-c1ccccc1 | > 100 | > 100 |  |  |  | > 100 | > 100 |  | > 100 |  | > 100 | > 100 | 27.2 | > 100 | > 100 | > 100 | > 100 | > 100 | > 100 | > 100
3 | CC(C)OP(=O)(OC(C)C)C(=Nc1ccc(N=C(NNc2ccc([N+](=O)[O-])cc2)P(=O)(OC(C)C)OC(C)C)cc1)NNc1ccc([N+](=O)[O-])cc1 |  |  | > 100 | > 100 | > 100 |  | > 100 | > 100 | > 100 | > 100 | > 100 | > 100 | > 100 | > 100 | > 100 | > 100 | > 100 | > 100 | > 100 | > 100
